Laboratory results: PubChem BioAssay (NCI)
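Following 48 hours of exposure in 96-well plates, responses at five concentrations were used to interpolate endpoints linearly. At the GI50, growth is halved. The concentration for full growth arrest is given as TGI.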

Assays:
Experiment in all cases: NCI-60 cell line screen, 48 h; in the data active means GI50 below about 0.43 µM; inactive means the rest
[1] = test system: UACC-257 melanoma
[2] = test system: SK-MEL-5 melanoma
[3] = test system: SNB-19 CNS
[4] = test system: HCT-116 colon
[5] = test system: ACHN renal
[6] = test system: SF-539 CNS
[7] = test system: SK-MEL-2 melanoma
[8] = test system: RPMI-8226 leukemia
[9] = test system: NCI-H522 lung
[10] = test system: MCF7 breast
[11] = test system: BT-549 breast
[12] = test system: A498 renal
[13] = test system: TK-10 renal
[14] = test system: PC-3 prostate
[15] = test system: HOP-92 NSCLC
[16] = test system: OVCAR-4 ovarian
[17] = test system: NCI-H226 lung
[18] = test system: UACC-62 melanoma
[19] = test system: OVCAR-3 ovarian
[20] = test system: K-562 leukemia
[21] = test system: A549 NSCLC
[22] = test system: UO-31 renal
[23] = test system: SK-OV-3 ovarian
[24] = test system: SF-295 CNS
[25] = test system: CCRF-CEM leukemia
[26] = test system: NCI-H23 lung
[27] = test system: KM12 colon
[28] = test system: 786-0 renal
[29] = test system: SW-620 colon
[30] = test system: COLO 205 colon
[31] = test system: MOLT-4 leukemia
[32] = test system: MDA-MB-435
[33] = test system: HCT-15 colon
[34] = test system: LOX IMVI melanoma
[35] = test system: HS 578T breast
[36] = test system: SR leukemia
[37] = test system: IGROV1 ovarian
[38] = test system: HOP-62 NSCLC
[39] = test system: EKVX NSCLC
[40] = test system: CAKI-1 renal
[41] = test system: M14 melanoma
[42] = test system: MALME-3M melanoma
[43] = test system: NCI-H460 lung
[44] = test system: U251 CNS
[45] = test system: OVCAR-5 ovarian
[46] = test system: OVCAR-8 ovarian
[47] = test system: SF-268 CNS
[48] = test system: NCI/ADR-RES ovarian
[49] = test system: HCC-2998 colon
[50] = test system: MDA-MB-231 breast
[51] = test system: DU-145 prostate
[52] = test system: RXF 393 renal
[53] = test system: SN12C renal
[54] = test system: SK-MEL-28 melanoma
[55] = test system: HT29 colon
[56] = test system: SNB-75 CNS
[57] = test system: HL-60(TB) leukemia
[58] = test system: T-47D breast

CCCCCCCCCCCCCCCCN1CC2CCCCC2C1 (stereo not given)
14 µM: TGI [28] | TGI [50]
13.8 µM: TGI [34]
9.22 µM: TGI [41]
30.6 µM: TGI [12]
19.5 µM: TGI [2]
26.3 µM: TGI [7]
17 µM: TGI [9] | TGI [21]
9.94 µM: TGI [26]
5.56 µM: TGI [14]
> 100 µM: TGI [10] | TGI [43] | TGI [44] | TGI [47]
18.8 µM: TGI [45]
34.1 µM: TGI [19]
6.78 µM: TGI [52]
27.7 µM: TGI [3]
4.64 µM: TGI [36]
19.7 µM: TGI [27]
21.3 µM: TGI [53]
30.5 µM: TGI [35]
11.2 µM: TGI [20]
10.8 µM: TGI [4]
12.2 µM: TGI [37]
18.6 µM: TGI [6]
17.6 µM: TGI [46]
4.28 µM: TGI [31]
16.8 µM: TGI [17] | TGI [48]
14.1 µM: TGI [51]
26.1 µM: TGI [13]
31.1 µM: TGI [5]
21.8 µM: TGI [39]
37 µM: TGI [24]
61.2 µM: TGI [33]
35.3 µM: TGI [42]
17.7 µM: TGI [30]
21.1 µM: TGI [18]
8.91 µM: TGI [40]
27 µM: TGI [1]
6.52 µM: TGI [15]
25.7 µM: TGI [38]
5.44 µM: TGI [49]
24.3 µM: TGI [32]
15 µM: TGI [29]
25.9 µM: TGI [16]
19.2 µM: TGI [22]
29.7 µM: TGI [23]
4.06 µM: TGI [8]
inactive: GI50 [1] 12.6 µM | GI50 [2] 5.84 µM | GI50 [3] 7 µM | GI50 [4] 2.97 µM | GI50 [5] 15.7 µM | GI50 [6] 5.52 µM | GI50 [7] 12.1 µM | GI50 [8] 1970 nM | GI50 [9] 4.4 µM | GI50 [10] 9.57 µM | GI50 [11] 11.3 µM | GI50 [12] 16.2 µM | GI50 [13] 11.2 µM | GI50 [14] 2110 nM | GI50 [15] 2380 nM | GI50 [16] 11.9 µM | GI50 [17] 4.2 µM | GI50 [18] 8.1 µM | GI50 [19] 17.6 µM | GI50 [20] 3.54 µM | GI50 [21] 4.09 µM | GI50 [22] 6 µM | GI50 [23] 12.5 µM | GI50 [24] 14.6 µM | GI50 [25] 2430 nM | GI50 [26] 3.14 µM | GI50 [27] 5.15 µM | GI50 [28] 3.49 µM | GI50 [29] 3.87 µM | GI50 [30] 4.37 µM | GI50 [31] 1920 nM | GI50 [32] 8.57 µM | GI50 [33] 6.79 µM | GI50 [34] 3.77 µM | GI50 [35] 11.8 µM | GI50 [36] 2070 nM | GI50 [37] 3.58 µM | GI50 [38] 12.5 µM | GI50 [39] 9.19 µM | GI50 [40] 2.49 µM | GI50 [41] 2930 nM | GI50 [42] 16.9 µM | GI50 [43] > 100 µM | GI50 [44] 14.5 µM | GI50 [45] 5.33 µM | GI50 [46] 4.18 µM | GI50 [47] 69.2 µM | GI50 [48] 4.56 µM | GI50 [49] 2170 nM | GI50 [50] 4.01 µM | GI50 [51] 3.85 µM | GI50 [52] 2.3 µM | GI50 [53] 8.26 µM
24.6 µM: TGI [11]
6.56 µM: TGI [25]

CCc1nccc2c1nc(-c1nonc1N)n2CC
21.5 µM: TGI [15]
inactive: GI50 [1] > 25 µM | GI50 [2] > 25 µM | GI50 [3] > 25 µM | GI50 [4] 20.4 µM | GI50 [5] > 23.2 µM | GI50 [6] > 25 µM | GI50 [7] > 25 µM | GI50 [8] > 25000 nM | GI50 [9] > 17.7 µM | GI50 [10] > 25 µM | GI50 [11] > 23.3 µM | GI50 [12] 7.1 µM | GI50 [54] > 25 µM | GI50 [13] 7.83 µM | GI50 [14] > 25000 nM | GI50 [15] 1390 nM | GI50 [16] > 25 µM | GI50 [17] > 18 µM | GI50 [18] > 25 µM | GI50 [19] > 25 µM | GI50 [20] > 25 µM | GI50 [21] > 25 µM | GI50 [22] 9.73 µM | GI50 [23] > 25 µM | GI50 [24] > 7.78 µM | GI50 [55] > 25 µM | GI50 [25] > 25000 nM | GI50 [26] > 25 µM | GI50 [27] > 25 µM | GI50 [28] > 25 µM | GI50 [56] > 23.4 µM | GI50 [29] > 25 µM | GI50 [30] > 25 µM | GI50 [31] > 25000 nM | GI50 [57] > 25 µM | GI50 [32] > 25 µM | GI50 [33] > 25 µM | GI50 [34] > 25 µM | GI50 [35] > 19.7 µM | GI50 [58] > 25 µM | GI50 [37] 16.8 µM | GI50 [38] > 25 µM | GI50 [39] > 25 µM | GI50 [40] 12.2 µM | GI50 [41] > 25000 nM | GI50 [42] > 25 µM | GI50 [43] > 25 µM | GI50 [44] > 25 µM | GI50 [45] > 17.8 µM | GI50 [46] > 25 µM | GI50 [47] > 25 µM | GI50 [48] > 25 µM | GI50 [49] > 25000 nM | GI50 [50] > 25 µM | GI50 [51] > 25 µM | GI50 [52] 13.6 µM | GI50 [53] > 25 µM
> 25 µM: TGI [1] | TGI [2] | TGI [3] | TGI [4] | TGI [5] | TGI [6] | TGI [7] | TGI [8] | TGI [9] | TGI [10] | TGI [11] | TGI [12] | TGI [54] | TGI [13] | TGI [14] | TGI [16] | TGI [17] | TGI [18] | TGI [19] | TGI [20] | TGI [21] | TGI [22] | TGI [23] | TGI [24] | TGI [55] | TGI [25] | TGI [26] | TGI [27] | TGI [28] | TGI [56] | TGI [29] | TGI [30] | TGI [31] | TGI [57] | TGI [32] | TGI [33] | TGI [34] | TGI [35] | TGI [58] | TGI [37] | TGI [38] | TGI [39] | TGI [40] | TGI [41] | TGI [42] | TGI [43] | TGI [44] | TGI [45] | TGI [46] | TGI [47] | TGI [48] | TGI [49] | TGI [50] | TGI [51] | TGI [52] | TGI [53]
